Read-outs that look alike come from different tables or passages of the source.

In test [1] the target is T1, purified lapine LBP (Oryctolagus cuniculus, UniProt P17454).
T1 construct: the mature secreted protein present in impure form in acute phase sera; from tissue; host or cells: acute phase rabbit serum (silver nitrate induced), Bio-Rex 70 and Mono-Q columns
Briefly: Microtiter binding assay: inhibition of LBP binding to Re595 LPS-coated plates. On the set-up: species or system rabbit. To be noted: for IC50: read-out: ED50 (the source's name) (converted); for Inhibition of LBP binding to LPS plate, in words: qualitative analysis of Table IV. From the text: (§1) The binding of purified lapine LBP to LPS immobilized on plastic microtiter plates has also been examined. The presence of LBP bound to LPS was detected with goat anti-rabbit LBP and peroxidase conjugated rabbit anti-goat IgG.
The data from these studies are shown in Table IV, below, where the numerical results are the concentrations necessary to reduce the binding of 1 microgram (ug)/ml LBP to the plate by 50 percent; i.e., ED50. It is noted that in some instances, the structure of the inhibitor is either not fully defined or the inhibitor is heterogeneous, thereby preventing a calculation of a molar concentration for ED50.
Microtiter plates were coated with LPS by incubating 100 ul/well of 30 ug/ml Re595 LPS in 0.1M Na2 Co3, 20 mM EDTA, pH 9.6 for 3 hours at 37°. The LPS solution was flicked out, the plates rinsed thoroughly under running water and air dried overnight. The binding properties of the dried, LPS-coated plates remain unchanged for up to eight weeks. Excess binding sites were then blocked with 200 ul/well of 10 mg/ml BSA in 50 mM HEPES, 0.15M NaCl, pH 7.4 (HS buffer) for 30 minutes at 37° temperature with agitation, after which the BSA solution was flicked out.
LBP samples, APRS, or NRS were added in a total volume of 100 ul/well diluted in 1 mg/ml BSA in HS buffer. Binding of LBP was allowed to occur for 3 hours at 37°. The plate was then rinsed 3 times with 200 ul/well of 1 mg/ml BSA in HS buffer with agitation over a 10 minute interval.
Goat anti-LBP serum, 100 ul/well, diluted 2000 times in 1 mg/ml BSA in HS buffer was then incubated in the wells for 2 hours at 37°. The anti-LBP antiserum was then rinsed out as above and replaced for 1 hour at room temperature with 100 ul/well of peroxidase conjugated rabbit anti-goat IgG diluted 2500 times in 1 mg/ml BSA.
(§2) Finally, 100 ul/well o-phenylenediamine solution (4 mM o-phenylenediamine, 2.3 mM H2 O2, 50 mM citric acid, 133 mM Na2 HPO4, pH 5.0) were added and the resulting composition maintained until sufficient color had developed (5-15 minutes). The reaction was stopped by addition of 100 ul/well 5M H2 SO4 and the absorbance at 490 nm of each well was quantitated in a microtiter plate reader. Mean absorbances and standard errors of the means were calculated from 4-8 replicates of each well.
Inhibition of LBP binding to the plate was studied by premixing the compound under study at the desired concentration with 1 ug/ml purified LBP for 10 minutes at 37° before adding the mixture to the microtiter plate.

Test [2] deals with T1, purified lapine LBP. Briefly: Binding of purified lapine LBP to LPS types and lipid A partial structures (microtiter plate). As to conditions: detected with goat anti-rabbit LBP and peroxidase conjugated rabbit anti-goat IgG. As to the method:
as §1
(§3) Binding affinities of LBP for LPS are near 10^9 m^-1.
Microtiter plates were coated with LPS by incubating 100 ul/well of 30 ug/ml Re595 LPS in 0.1M Na2 Co3, 20 mM EDTA, pH 9.6 for 3 hours at 37°. The LPS solution was flicked out, the plates rinsed thoroughly under running water and air dried overnight. The binding properties of the dried, LPS-coated plates remain unchanged for up to eight weeks. Excess binding sites were then blocked with 200 ul/well of 10 mg/ml BSA in 50 mM HEPES, 0.15M NaCl, pH 7.4 (HS buffer) for 30 minutes at 37° temperature with agitation, after which the BSA solution was flicked out. […]
as §2

The nature of test [3]: Binding affinity of LBP for LPS. To be noted: association constant.
Description: as §1, §3

The subject of a further test is Gram-negative bacteria. As to conditions: similar conditions for LBP and BPI; cited from earlier work.
Test [4] can be described thus: NRS reconstitution assay for LBP activity (C1.3 formation, retardation of LPS binding to HDL). Type of test: biochemical, rabbit. To be noted: added to NRS. As to the method:
Two examples of the NRS reconstitution assay for lipopolysaccharide binding protein (LBP) activity in the lapine (rabbit) system are shown in FIG. 5. In control studies, no systematic dependence on the assay results were observed when smaller total assay volumes; i.e., 0.5 or 0.25 ml rather than the standrard 1 ml, were used.
The basic method used during development of the purification procedure for LBP was a reconstitution assay in which fractions of acute phase serum were assayed for their ability to reconstitute "acute phase behavior" in NRS. The screening assay used was to mix a sample of the material to be tested with 1.0 ml of NRS at 37 degrees C. for 30 minutes. LPS and EDTA were then added to the concentrations given above, and the LPS-HDL binding reaction was allowed to proceed for ten minutes at 37 degrees before addition of CsCl and centrifugation. The 10 minute reaction time was chosen as a compromise between the times required for LPS to bind to HDL in NRS and APRS. […]
To quantitate LBP activity in purified fractions of APRS, the reconstitution assay just described was performed with a series of different amounts of the sample being assayed up to a maximum of 200 ul per ml NRS. After centrifugation and quantitation of the LPS in C1.3, a plot of percent LPS as C1.3 versus sample volume was made. […]

The mark [5] stands for this setting: concentration necessary to reduce the binding of 1 ug/ml LBP to the Re595 LPS-coated plate by 50 percent.
Where [6] appears, read: concentration necessary to reduce the binding of 1 ug/ml LBP to the plate by 50 percent.

The molecule “0-[2-amino-2-deoxy-N^2 -(3-hydroxytetradecanoyl)-beta-D-glucopyranosyl]-(1-6)-amino-2-deoxy-N^2 -(3-hydroxytetradecanoyl)-alpha-D-glucopyranose 1,4'-bisphosphate [DADG-BSA]” returned an ED50 at purified lapine LBP [1] (setting [5]) of 540 ng/mL. The IC50 on purified lapine LBP [1] (setting [6]) was 0.57 µM.

As to `Nc1ncnc2c1ncn2[C@@H]1O[C@H](COP(=O)(O)O)[C@@H](O)[C@H]1O` [AMP, adenosine-5'-monophosphate], the IC50 on purified lapine LBP [1] (setting [5]) is greater than 2880 µM; on purified lapine LBP [1] (setting [6]), greater than 2800 µM. Also, the “Inhibition of LBP binding to LPS plate, in words” value (from here on “Inhibition of LBP binding”) on purified lapine LBP [1] is on record as “ineffective”.

Take `CCCCCCCCCCCCCC(=O)OCC(COP(=O)(O)O)OC(=O)CCCCCCCCCCCCC` (stereo not drawn) [Dimyristoyl phosphatidic acid, dimyristoyl phosphatidic acid]: the IC50 is 4.22 µM at purified lapine LBP [1] (setting [5]) and 3.9 µM on purified lapine LBP [1] (setting [6]).

As for `CCCCCCCCCCCCCC(=O)O[C@H](CCCCCCCCCCC)CC(=O)O[C@@H]1[C@@H](NC(=O)C[C@@H](CCCCCCCCCCC)OC(=O)CCCCCCCCCCC)[C@H](OC[C@H]2O[C@H](OP(=O)(O)O)[C@H](NC(=O)C[C@H](O)CCCCCCCCCCC)[C@@H](OC(=O)C[C@H](O)CCCCCCCCCCC)[C@@H]2O)O[C@H](CO)[C@H]1OP(=O)(O)O` [J5 LA (synthetic)], the figures for the IC50 at purified lapine LBP [1] (setting [5]) and at purified lapine LBP [1] (setting [6]) were 0.0222 µM and 0.02 µM, respectively.

In the case of `CCCCCCCCCCC[C@@H](O)CC(=O)N[C@H]1[C@@H](OP(=O)(O)O)O[C@H](CO)[C@@H](O)[C@@H]1OC(=O)C[C@H](O)CCCCCCCCCCC` [Lipid x], the “Binding of LBP to the substance” value at purified lapine LBP [2] is listed as “only poorly”. The IC50 at purified lapine LBP [1] (setting [5]) is 3.93 µM; on purified lapine LBP [1] (setting [6]) it was 3.9 µM.

With `CCCCCCCCCCC[C@@H](O)CC(=O)N[C@H]1[C@H](OC[C@H]2O[C@H](OP(=O)(O)O)[C@H](NC(=O)C[C@H](O)CCCCCCCCCCC)[C@@H](OC(=O)C[C@H](O)CCCCCCCCCCC)[C@@H]2O)O[C@H](CO)[C@@H](OP(=O)(O)O)[C@@H]1OC(=O)C[C@H](O)CCCCCCCCCCC` [precursor IVA], the “Binding of LBP to the substance” value on purified lapine LBP [2] is given as “bind”.

In the case of Dextran sulfate, on purified lapine LBP [1] (setting [5]), the ED50 was 73 ng/mL. On purified lapine LBP [1], the “Inhibition of LBP binding” value is “fairly good ligands”.

With Heparin, the ED50 on purified lapine LBP [1] (setting [5]) is 21,000 ng/ml. For the same molecule, the “Inhibition of LBP binding” value on purified lapine LBP [1] is recorded as “inhibitory only at high concentrations”.

Consider Lipoteichoic acid, for which the ED50 on purified lapine LBP [1] (setting [5]) is 480 ng/mL. The “Inhibition of LBP binding” value at purified lapine LBP [1] is reported as “fairly good ligands”.

B1: LBP: acute phase glycoprotein of about 60 kD that binds LPS and retards its binding to HDL (protein, UniProt P17454 27-482, looked up)
Lipopolysaccharide-binding …: TNPGLITRITDKGLEYAAREGLLALQRKLLEVTLPDSDGDFRIKHFGRAQYKFYSLKIPRFELLRGTLRPLPGQGLSLDISDAYIHVRGSWKVRKAFLRLKNSFDLYVKGLTISVHLVLGSESSGRPTVTTSSCSSDIQNVELDIEGDLEELLNLLQSQIDARLREVLESKICRQIEEAVTAHLQPYLQTLPVTTQIDSFAGIDYSLMEAPRATAGMLDVMFKGEIFPLDHRSPVDFLAPAMNLPEAHSRMVYFSISDYVFNTASLAYHKSGYWNFSITDAMVPADLNIRRTTKSFRPFVPLLANLYPNMNLELQGTVNSEQLVNLSTENLLEEPEMDIEALVVLPSSAREPVFRLGVATNVSATLTLNTRKITGFLKPGRLQVELKESKVGGFNVELLEALLNYYILNNLYPKVNEKLAHRFPLPLLRHIQLYDLLLQTHENFLLVGANIQYRRV
In the case of B1, the “Binding affinities of LBP for LPS” value in test [3] was ~10^9 m^-1. Moreover, the Bactericidal effect result in the test on Gram-negative bacteria was “no bactericidal effects”. In addition, the “Retardation of LPS binding to HDL / reconstitution of acute phase behavior in normal rabbit serum” value in test [4] is given as “retards binding”.

B2: BPI: bactericidal/permeability increasing protein, a product of neutrophils (protein, UniProt P17213 32-487, looked up)
Bactericidal …: VNPGVVVRISQKGLDYASQQGTAALQKELKRIKIPDYSDSFKIKHLGKGHYSFYSMDIREFQLPSSQISMVPNVGLKFSISNANIKISGKWKAQKRFLKMSGNFDLSIEGMSISADLKLGSNPTSGKPTITCSSCSSHINSVHVHISKSKVGWLIQLFHKKIESALRNKMNSQVCEKVTNSVSSELQPYFQTLPVMTKIDSVAGINYGLVAPPATTAETLDVQMKGEFYSENHHNPPPFAPPVMEFPAAHDRMVYLGLSDYFFNTAGLVYQEAGVLKMTLRDDMIPKESKFRLTTKFFGTFLPEVAKKFPNMKIQIHVSASTPPHLSVQPTGLTFYPAVDVQAFAVLPNSSLASLFLIGMHTTGSMEVSAESNRLVGELKLDRLLLELKHSNIGPFPVELLQDIMNYIVPILVLPRVNEKLQKGFPLPTPARVQLYNVVLQPHQNFLLFGADVVYK
In the case of B2, in the test on Gram-negative bacteria, the Bactericidal effect entry is “kills”.

B3: rabbit CRP: rabbit C-reactive protein (protein, UniProt P02742 21-225, looked up)
C-reactive protein: AGMHKKAFVFPKESDNSYVSLNAQLKKPLKAFTVCLYFYTDLSMTRGYSIFSYATRRQFNEILLFWSKDIGYSFSVGGDEIIFKVSDIPVDPTHLCASWESSTGIAELWVDGKPMVRKSLKKGYILGPEASIILGQDQDSFGGSFEKQQSLVGDIGNVNMWDYALSPEEINTIYAGGTFSPNVLDWRELTYQVRGEVHVKPQLWP
B3: the “Retardation of LPS binding to HDL / reconstitution of acute phase behavior in normal rabbit serum” value in test [4] is reported as “does not reconstitute the observed phenomena”.

The record behind these values is patent US5871937A, “Acute phase protein modulating endotoxic activity of lipopolysaccharides, assay methods and polypeptides” (priority 1997, dated 1999).
